pEC50, pIC50: −log10 of the molar value.
Assays:
[1] = target: T1, Deoxyuridine 5'-triphosphate nucleotidohydrolase, mitochondrial (Homo sapiens, UniProt P33316); experiment: Inhibition of human dUTPase assessed as reduction in [5-3H]dUMP production incubated for 15 mins by HPLC
T1 sequence (P33316 whole entry): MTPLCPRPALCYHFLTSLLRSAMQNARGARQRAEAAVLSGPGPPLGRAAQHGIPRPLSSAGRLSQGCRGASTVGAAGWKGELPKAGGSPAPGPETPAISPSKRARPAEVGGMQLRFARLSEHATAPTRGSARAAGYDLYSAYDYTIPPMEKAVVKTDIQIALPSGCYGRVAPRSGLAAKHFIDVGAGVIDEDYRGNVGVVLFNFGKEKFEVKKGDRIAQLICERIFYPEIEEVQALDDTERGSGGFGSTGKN

[2] = Cytotoxicity against human HeLaS3 cells incubated for 72 hrs by crystal violet assay; assay type: functional, cell-based; conditions: HeLa S3, 72 h
Mus musculus [3] = experiment: Metabolic stability in Balb/cA mouse assessed as metabolite formation at 50 mg/kg, po administered as single dose measured after 0.5 hrs by reverse-phase ultra performance liquid chromatography; assay type: ADME, organism-based; design: dose 50 mg/kg, route oral; conditions: in vivo
[4] = Cmax in Balb/cA mouse at 50 mg/kg, po administered as single dose by reverse-phase ultra performance liquid chromatography; assay type: ADME, organism-based; design: dose 50 mg/kg, route oral; conditions: in vivo
[5] = Half life in Balb/cA mouse at 50 mg/kg, po administered as single dose by reverse-phase ultra performance liquid chromatography; assay type: ADME, organism-based; design: dose 50 mg/kg, route oral; conditions: in vivo
[6] = AUC (0 to t) in Balb/cA mouse at 50 mg/kg, po administered as single dose by reverse-phase ultra performance liquid chromatography; assay type: ADME, organism-based; design: dose 50 mg/kg, route oral; conditions: plasma
[7] = Tmax in Balb/cA mouse at 50 mg/kg, po administered as single dose by reverse-phase ultra performance liquid chromatography; assay type: ADME, organism-based; design: dose 50 mg/kg, route oral; conditions: in vivo
MX1 [8] = experiment: Antitumor activity against human MX1 cells xenografted in Balb/cA JcL-nu mouse assessed as tumor growth inhibition at 300 mg/kg/day, po for 14 days and measured twice a week relative to untreated control; assay type: functional; conditions: MX1, 336 h
Mus musculus [9] = experiment: Toxicity in Balb/cA JcL-nu mouse xenografted with human MX1 cells assessed as body weight loss at 300 mg/kg/day, po for 14 days co-treated with 5-FU at 15 mg/kg/day for 14 days and measured twice a week relative to untreated control; assay type: organism-based; conditions: in vivo, 336 h
MX1 [10] = experiment: Potentiation of 5-FU induced antitumour activity against human MX1 cells xenografted in Balb/cA JcL-nu mouse assessed as tumor growth inhibition at 300 mg/kg/day, po for 14 days co-treated with 5-FU at 15 mg/kg/day for 14 days and measured twice weekly relative to untreated control; assay type: functional
MX1 [11] = experiment: Antitumor activity against human MX1 cells xenografted in Balb/cA JcL-nu mouse assessed as tumor growth inhibition at 15 mg/kg/day, […] as continuous infusion using osmotic pump and measured twice a week relative to untreated control; assay type: functional

Row | SMILES | pIC50 [1] | also measured
1 | O=c1ccn(CCCCc2cnnn2CCc2cccc(OCC3CC3)c2)c(=O)[nH]1 | 6.68 | pEC50 [2]: 4.08
2 | C[C@@H](Cn1nncc1CCCCn1ccc(=O)[nH]c1=O)c1cccc(OCC2CC2)c1 | 7.24 | 
3 | C[C@H](Cn1nncc1CCCCn1ccc(=O)[nH]c1=O)c1cccc(OCC2CC2)c1 | 6.06 | 
4 | CC[C@@H](Cn1nncc1CCCCn1ccc(=O)[nH]c1=O)c1cccc(OCC2CC2)c1 | 7.54 | Stability (Mus musculus [3]): Unstable; pEC50 [2]: 4.66; Cmax [4]: 8.69 µM; half-life [5]: 30 min; AUC(0-t) [6]: 4.56 µM·h; Tmax [7]: 30 min
5 | CC[C@H](Cn1nncc1CCCCn1ccc(=O)[nH]c1=O)c1cccc(OCC2CC2)c1 | 6.14 | 
6 | CC[C@@](O)(Cn1nncc1CCCCn1ccc(=O)[nH]c1=O)c1cccc(OCC2CC2)c1 | 6.82 | Cmax [4]: 62.1 µM; half-life [5]: 60 min; AUC(0-t) [6]: 67.4 µM·h; Tmax [7]: 30 min
7 | CC[C@@](O)(Cn1nncc1CCCCn1ccc(=O)[nH]c1=O)c1cccc(OC2CCCC2)c1 | 6.68 | 
8 | CCOc1cccc([C@@](O)(CC)Cn2nncc2CCCCn2ccc(=O)[nH]c2=O)c1 | < 6.00 | 
9 | CC[C@@](O)(Cn1nncc1CCCCn1ccc(=O)[nH]c1=O)c1cccc(OCC2(C)CC2)c1 | 6.20 | 
10 | CC[C@@](O)(Cn1nncc1CCCCn1ccc(=O)[nH]c1=O)c1cccc(OCC(C)C)c1 | 6.26 | 
11 | C=CCOc1cccc([C@@](O)(CC)Cn2nncc2CCCCn2ccc(=O)[nH]c2=O)c1 | 6.44 | 
12 | CC[C@@](O)(Cn1nncc1CCCCn1ccc(=O)[nH]c1=O)c1cccc(OC2CCOCC2)c1 | < 6.00 | 
13 | CC[C@@](O)(Cn1nncc1CCCCn1ccc(=O)[nH]c1=O)c1cccc(OCC2CCC2)c1 | 6.82 | 
14 | CC[C@](O)(Cn1nncc1CCCCn1ccc(=O)[nH]c1=O)c1cccc(OCC2CC2)c1 | < 6.00 | 
15 | CC[C@@](O)(Cn1nncc1CCOCn1ccc(=O)[nH]c1=O)c1cccc(OCC2CC2)c1 | 6.77 | 
16 | CC[C@@](O)(Cn1nncc1CCCCn1ccc(=O)[nH]c1=O)c1ccc(F)c(OCC2CC2)c1 | 7.17 | Stability (Mus musculus [3]): Stable; inhibition in vivo at 300 mg/kg/day (MX1 [8]): -23.2%; Activity (Mus musculus [9]): Non-toxic; inhibition (INH) (MX1 [10]): 84.9%; pEC50 [2]: 4.39; Cmax [4]: 49.8 µM; half-life [5]: 60 min; AUC(0-t) [6]: 57.3 µM·h; Tmax [7]: 60 min
17 | CC[C@](O)(Cn1nncc1CCCCn1ccc(=O)[nH]c1=O)c1ccc(F)c(OCC2CC2)c1 | 6.46 | 
18 | O=c1ccn(CCCc2cnnn2CC(c2ccccc2)c2ccccc2)c(=O)[nH]1 | 5.89 | pEC50 [2]: < 4.00
19 | O=c1ccn(CCCCc2cnnn2CC(c2ccccc2)c2ccccc2)c(=O)[nH]1 | 6.13 | 
20 | O=c1ccn(CCCc2cnnn2C(c2ccccc2)c2ccccc2)c(=O)[nH]1 | < 5.00 | 
21 | O=c1ccn(CCCCc2cnnn2C(c2ccccc2)c2ccccc2)c(=O)[nH]1 | 5.80 | 
22 | O=c1ccn(CCCc2cnnn2CCc2ccccc2)c(=O)[nH]1 | < 5.00 | 
23 | O=c1ccn(CCCCc2cnnn2CCc2ccccc2)c(=O)[nH]1 | 5.46 | 
24 | COc1ccccc1CCn1nncc1CCCCn1ccc(=O)[nH]c1=O | 5.24 | 
25 | COc1cccc(CCn2nncc2CCCCn2ccc(=O)[nH]c2=O)c1 | 5.39 | 
26 | COc1ccc(CCn2nncc2CCCCn2ccc(=O)[nH]c2=O)cc1 | < 5.00 | 
27 | O=c1ccn(CCCCc2cnnn2CCc2ccccc2OCC2CC2)c(=O)[nH]1 | 6.41 | 
28 | O=c1[nH]cc(F)c(=O)[nH]1 [FLUOROURACIL] |  | inhibition in vivo at 15 mg/kg/day (MX1 [11]): 20%
